According to PubChem BioAssay (NCI):
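Dose response: 5 concentrations. Exposure: 48 h. Format: 96-well plates. Endpoint: linear interpolation; highest concentration if not reached. The concentration for full growth arrest is given as TGI.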 Where a SMILES comes first, the peptide text is derived from it.

What was measured:
Assay in all cases: inhibition of tumour cell growth, NCI panel, 48 h
SNB-75 CNS = tested on: SNB-75 CNS
K-562 leukemia = tested on: K-562 leukemia
IGROV1 ovarian = tested on: IGROV1 ovarian
TK-10 renal = tested on: TK-10 renal
M14 melanoma = tested on: M14 melanoma
COLO 205 colon = tested on: COLO 205 colon
NCI-H226 lung = tested on: NCI-H226 lung
MDA-N = tested on: MDA-N
CAKI-1 renal = tested on: CAKI-1 renal
OVCAR-5 ovarian = tested on: OVCAR-5 ovarian
SNB-19 CNS = tested on: SNB-19 CNS
A549 NSCLC = tested on: A549 NSCLC
A498 renal = tested on: A498 renal
U251 CNS = tested on: U251 CNS
HT29 colon = tested on: HT29 colon
HCT-116 colon = tested on: HCT-116 colon
BT-549 breast = tested on: BT-549 breast
DU-145 prostate = tested on: DU-145 prostate
SF-268 CNS = tested on: SF-268 CNS

SMILES | TGI (SNB-75 CNS) [µM] | TGI (K-562 leukemia) [µM] | TGI (IGROV1 ovarian) [µM] | TGI (TK-10 renal) [µM] | TGI (M14 melanoma) [µM] | TGI (COLO 205 colon) [µM] | TGI (NCI-H226 lung) [µM] | TGI (MDA-N) [µM] | TGI (CAKI-1 renal) [µM] | TGI (OVCAR-5 ovarian) [µM] | TGI (SNB-19 CNS) [µM] | TGI (A549 NSCLC) [µM] | TGI (A498 renal) [µM] | TGI (U251 CNS) [µM] | TGI (HT29 colon) [µM] | TGI (HCT-116 colon) [µM] | TGI (BT-549 breast) [µM] | TGI (DU-145 prostate) [µM] | TGI (SF-268 CNS) [µM]
Cn1c(=O)n2c(-c3ccccc3)c(-c3ccccc3)n2c1=O | > 100 | > 100 | > 100 | > 100 | > 100 | > 100 | > 100 | > 100 | > 100 | > 100 | > 100 | > 100 | > 100 | > 100 | > 100 | > 100 | > 100 |  | 
CC(=O)O[C@H]1CC[C@@]2(C)C(=C[C@H](c3ccc(O)cc3)[C@H]3[C@@H]4CC[C@H](OC(C)=O)[C@@]4(C)CC[C@@H]32)C1 | 51.7 | 59.4 |  | > 100 | 41.3 | 35.2 | 40.5 |  | 53.4 | 97.9 | 47.7 | 40.5 | 57.8 | 48 | 26.5 | 29.7 | 29.4 | 48.8 | 39.3
COCCN(CCOC)C(=O)COc1c2cc(C(C)(C)C)cc1Cc1cc(C(C)(C)C)cc(c1OCC(=O)N(CCOC)CCOC)Cc1cc(C(C)(C)C)cc(c1OCC(=O)N(CCOC)CCOC)Cc1cc(C(C)(C)C)cc(c1OCC(=O)N(CCOC)CCOC)Cc1cc(C(C)(C)C)cc(c1OCC(=O)N(CCOC)CCOC)C2 | 0.576 |  | 10.1 | 15 | 13 | 1.96 | 11 | 12.1 |  | 18.2 | 16.4 | 11.3 | 9.53 | 2.05 | 8.13 | 3.78 |  | 11.1 | 19.1
CCOC(=O)N/N=C(\Cc1ccc([N+](=O)[O-])cc1)OCC | > 100 | > 100 | > 100 | > 100 | > 100 | > 100 |  | > 100 |  | > 100 | > 100 | > 100 |  | > 100 | > 100 | > 100 | > 100 | > 100 | > 100
COC(=O)c1cc(C)ccc1C1CN=NC12Cc1cccc(C)c1C2=O (stereo not given) | > 100 | > 100 | > 100 | > 100 | 38.9 |  | > 100 | > 100 | > 100 | 96.4 | > 100 | > 100 | > 100 | > 100 | > 100 | 70.5 |  | > 100 | > 100
CCOC(=O)C(C(=O)OCC)=C1N[C@H](C(=O)OCC)CS1 |  | > 100 | > 100 |  | > 100 | > 100 | > 100 |  | > 100 | > 100 | > 100 | > 100 |  | > 100 | > 100 | > 100 |  |  | > 100
CC(C)[Si](OC1=C(c2ccccc2)C(NC(=O)/C=C/c2ccc([N+](=O)[O-])cc2)CCC1)(C(C)C)C(C)C (stereo not given) | > 100 | > 100 | > 100 | > 100 | > 100 | > 100 | > 100 |  |  | > 100 | > 100 | > 100 | > 100 | > 100 | > 100 | > 100 | > 100 | > 100 | > 100
O=[N+]([O-])c1cc(-c2nnc(C34CC5CC(CC(C5)C3)C4)o2)cc([N+](=O)[O-])c1 | > 100 | > 100 | > 100 |  | 70.4 | 42.4 | > 100 | > 100 | > 100 | > 100 | > 100 | > 100 | > 100 | > 100 | 32.2 | > 100 |  | > 100 | > 100
COC(=O)CCc1ccc2c(c1)CC1(Cc3ccccc3C1)C2 | > 100 | > 100 | > 100 | > 100 | > 100 | > 100 | > 100 | > 100 |  | > 100 |  | > 100 | > 100 | > 100 | > 100 | > 100 |  |  | 
C/C=C1\CNC1C(=O)O (stereo not given) |  | > 100 | > 100 | > 100 |  | > 100 |  | > 100 | > 100 | > 100 | > 100 | > 100 | > 100 |  | > 100 | > 100 | > 100 |  | > 100
CCC(CCN)(CCN)[N+](=O)[O-] | > 100 | > 100 | > 100 |  | > 100 | > 100 |  | > 100 | > 100 | > 100 |  | > 100 |  | > 100 | > 100 | > 100 | > 100 | > 100 | > 100
COc1ccc2c(c1)CCN1CCCc3ccc(OC)cc3C21 (stereo not given) | 83.2 | > 100 | > 100 | > 100 | > 100 | > 100 | > 100 |  | > 100 | > 100 | > 100 | > 100 | > 100 | > 100 | > 100 | > 100 | 89.3 | > 100 | > 100
COC(=O)/C(=N\NC(=S)NN)C(C(=O)OC)C(=O)C(=O)Nc1cccc(C(F)(F)F)c1 (stereo not given) | > 100 |  | > 100 | > 100 | > 100 |  | > 100 | > 100 | > 100 | > 100 | > 100 | > 100 | > 100 | > 100 | > 100 | > 100 | > 100 |  | > 100
CC1=CC(=O)C(=CN2C(=O)/C(=C\c3cccnc3)NC2=S)C(=O)O1 | > 100 |  | > 100 | > 100 | > 100 | > 100 | > 100 | > 100 | > 100 | > 100 | > 100 | > 100 |  | > 100 | > 100 | > 100 | > 100 | > 100 | 
NC(=O)CCC(CCC(N)=O)(CCC(N)=O)[N+](=O)[O-] | > 100 |  | > 100 | > 100 | > 100 | > 100 | > 100 | > 100 | > 100 | > 100 | > 100 | > 100 |  | > 100 | > 100 | > 100 | > 100 | > 100 | > 100
CC1=CC(=O)[C@@H](O)[C@]2(C)[C@H]3[C@@]4(O)OC[C@@]35[C@@H](C[C@@H]12)OC(=O)C(OC(=O)CC1=CCCC1)[C@H]5[C@@H](C)[C@H]4O (stereo not given in full) | 0.155 | > 100 | 0.112 | 0.948 | 0.103 | 0.724 | 0.0632 | 0.163 | 1.63 | 0.687 |  | 8.99 |  |  | 0.203 | 1.42 | 0.198 | 4.66 | 0.132
CCOC1(OCC)N=C(N)C2(C#N)C3(C(=O)N(C(C)C)N=C3C)C12C#N (stereo not given) | > 100 | > 100 | > 100 |  | > 100 | > 100 | > 100 |  | > 100 | > 100 | > 100 | > 100 | > 100 | > 100 | > 100 | > 100 | > 100 | > 100 | > 100
Nc1ncnc2c1ncn2C1C=CC(COS(N)(=O)=O)C1 (stereo not given) | > 100 | > 100 | > 100 | > 100 | > 100 | > 100 | > 100 | > 100 | 57.6 | > 100 | > 100 | > 100 |  | > 100 | > 100 | > 100 |  | > 100 | > 100
N#C/C(C(=S)Nc1ccccc1)=C(/N)N1CCCC1 |  | > 100 | > 100 | > 100 | > 100 | > 100 | > 100 | > 100 | 92.5 | > 100 | > 100 | > 100 | > 100 | > 100 | > 100 | > 100 |  | > 100 | > 100
C/C(=N\Nc1nc2ccccc2s1)c1cnccn1 | > 31.3 | > 34.1 | 7.28 |  | 12.3 | > 36.9 | 1.38 | > 100 | > 42.2 | > 77.7 | > 29.4 | > 65.5 |  | > 100 | 2.81 | > 36.8 | > 100 | > 100 | > 22.7
CNC(=O)CNC(=O)C(NC(=O)CNC(=O)C1CCCN1C(=O)C(C)NC(=O)C(NC(C)=O)C(C)C)C(C)C (stereo not given) (Ac-VAPGVG-NHMe; configuration not given here) |  | > 100 | > 100 | > 100 | > 100 | > 100 |  | > 100 | > 100 | > 100 | > 100 |  | > 100 | > 100 | > 100 | > 100 |  | > 100 | > 100
CS/C(=N\S(=O)(=O)c1cc(C)c(Cl)cc1Cl)NNc1cnc2ccccc2n1 | > 100 | > 100 | > 100 | > 100 | > 100 | > 100 | > 100 |  | > 100 | > 100 | > 100 | > 100 | > 100 | > 100 | > 100 | > 100 | > 100 | > 100 | > 100
NC(=NCCN1CCCCCCC1)NO | > 100 | > 100 | 92.6 | > 100 | > 100 | > 100 | > 100 | > 100 | > 100 | > 100 | > 100 | > 100 | > 100 |  | > 100 | 26.7 |  | > 100 | > 100
CC(C)n1c(=O)[nH]n(-c2ccccc2)c1=O | > 100 | > 100 | > 100 | > 100 | > 100 | > 100 | > 100 | > 100 | > 100 | > 100 | > 100 | > 100 | > 100 | > 100 | > 100 | > 100 |  | > 100 | > 100
Cc1cc(O)c(C=NC(=S)c2ccccc2)c(=O)o1 | > 100 |  | > 100 | > 100 | > 100 | > 100 | > 100 | > 100 | > 100 | > 100 | > 100 | > 100 |  | > 100 | > 100 | > 100 | > 100 | > 100 | 
CN(C)C1(N(C)C)Oc2c(c(=O)n(C)c(=O)n2C)C(c2ccccc2Br)C1(F)F (stereo not given) | > 100 | > 100 |  | > 100 | > 100 | > 100 | > 100 |  | > 100 | > 100 | > 100 | > 100 | > 100 | > 100 |  | > 100 | > 100 | > 100 | > 100
CCOC(=O)c1c(-c2ccccc2)nc2c(OC)nccn12 | > 100 | > 100 | > 100 | > 100 | > 100 | > 100 | > 100 |  | > 100 |  | > 100 | > 100 |  | > 100 | > 100 | > 100 | > 100 | > 100 | > 100
